{
  "source": "paper PMC9246773",
  "about": "“Assessing the Activity of Antimicrobial Peptides Against Common Marine Bacteria Located in Rotifer (Brachionus plicatilis) Cultures” (Probiotics and Antimicrobial Proteins, 2022)",
  "format_in_all_cases": "cell-based",
  "key": {"[1]": {"system": "Vibrio harveyi", "details": "48 h", "protocol": "(§1) A range of bacterial species with the potential to be transferred to developing fish larvae as pathogens or probiotics were selected for use in the study (Table 2). Bacterial isolates were stored at −80 °C and thawed, and 25 µL of the isolates was spread onto marine salt agar (MSA) media. All isolates were incubated at 25 °C for 18 h to reach mid-log growth phase. All isolates were sub-cultured and identified using mass spectrometry (MALDI-TOF) using the BioTyper and MBT 8468 library (Bruker Pty Ltd). The isolate Tenacibaculum discolor was plated on Anacker and Oradal’s marine (AOM) media, incubated for 48 h and identified using the aforementioned method. Bacterial isolates were suspended in sterile saline (0.75% NaCl w/v) to 0.5 McFarland standard. […] The bacterial isolates T. discolor and Pseudoalteromonas sp. require marine salts to grow and were not added to MHB (0‰). The isolate T. discolor requires low nutrients to grow, therefore, a separate MHB (25‰) was prepared at a diluted ratio of 1 part MHB and 7 parts artificial seawater (25‰).\n(§2) The protocol was followed to determine the minimum inhibitory concentration (MIC) of the selected peptides. Two MIC assays were performed, firstly to determine whether each peptide precipitated in MHB and thereby required acetic acid adjustments (supplementary materials) and secondly, to determine the antimicrobial activity of each peptide in artificial seawater (25‰). Peptide stock solutions (1.3 mg mL^−1) were made by diluting the peptides in sterile deionised water. MHB was made with deionised water to reach a concentration of approaching 0‰ and artificial sea salts (Sigma-Aldrich® S9883) to reach a salinity of 25‰.\n(§3) Once the acetic acid requirement for each peptide was determined (Table 3), the antimicrobial activity of each peptide was tested at a salinity of 0‰ and 25‰ for all bacterial isolates. A stock solution for peptides that required acetic acid was prepared by a 1:2 dilution in acetic acid (0.02% acetic acid w/v, containing 0.4% BSA) solution. In a 96-well polypropylene microtitre plates (Costar® 3879), 100 µL of this peptide stock was added to the first well for each bacterial isolate tested and serially diluted twofold with acetic acid (0.01% acetic acid w/v, containing 0.2% BSA). From each well, 10 µL of each peptide concentration was added to the corresponding wells of a new 96-well microtitre plate. From each of the bacterial suspensions (0‰), 90 µL was added to each well. […] Twofold serial dilutions were made with MHB (0‰). From each of the bacterial suspensions (0‰), 50 µL was added to each well. The same method was followed for testing peptides in MHB at 25‰. All peptide concentrations ranged from 0.125 to 65 µg mL^−1, and the bacterial suspension in each well was approximately 5 × 10^5 CFU mL^−1. The different salinities were used to compare any differences in antimicrobial activity in 0‰ and 25‰ water. […] Each bacterium was trialled in duplicate."}, "[2]": {"system": "Vibrio harveyi (ATCC 35084)", "details": "ATCC 35084, 48 h", "protocol": "as §1, §2, §3"}, "[3]": {"system": "Vibrio alginolyticus", "details": "48 h", "protocol": "as §1, §2, §3"}, "[4]": {"system": "Tenacibaculum discolor", "details": "48 h", "protocol": "as §1, §2, §3"}, "[5]": {"system": "Vibrio scophthalmi", "details": "48 h", "protocol": "as §1, §2, §3"}, "[6]": {"system": "Vibrio rotiferianus", "details": "48 h", "protocol": "as §1, §2, §3"}, "[7]": {"system": "Escherichia coli (ATCC 25922)", "details": "ATCC 25922, 48 h", "protocol": "as §1, §2, §3"}, "[8]": {"system": "Shewanella sp.", "details": "48 h", "protocol": "as §1, §2, §3"}, "[9]": {"system": "Pseudoalteromonas sp.", "details": "48 h", "protocol": "as §1, §2, §3"}, "[10]": {"system": "Vibrio harveyi", "details": "48 h", "protocol": "as §1, §2\n(§4) A broth microdilution protocol was followed to test whether the AMPs precipitated in MHB. The isolates T. discolor and Pseudoalteromonas were excluded from this assay because they required marine salts for growth. The peptides HHC10 and HHC36 previously required acetic acid adjustments according to [63] and were not trialled in this assay. To test if peptides required acetic acid, each peptide was diluted 1:2 in acetic acid (0.02% acetic acid w/v, containing 0.4% BSA) solution. In a 96-well polypropylene microtitre plates (Costar® 3879), 100 µL of this peptide stock was added to the first well for each bacterial isolate tested and serially diluted 2-fold with acetic acid (0.01% acetic acid w/v, containing 0.2% BSA). From each well, 10 µL of each peptide concentration was added to the corresponding wells of a new 96-well microtitre plate. From each of the bacterial suspensions in MHB (0‰), 90 µL was added to each well. […] From each of the bacterial suspensions in MHB (0‰), 50 µL was added to each well. All peptide concentrations ranged from 0.125 - 65µg mL^-1 and the bacterial suspension in each well was approximately 5 × 10^5 CFU mL^-1. Antimicrobial peptides that have an MIC value two or more dilutions higher in the assay with no acetic acid, compared to the assay with acetic acid, require acetic acid adjustments. The 96-well plates were incubated at 25 °C and read at 24 and 48 hours. The MIC was visually determined using a Sensititre™ Vizion™ Digital MIC Viewing System (Thermo Scientific™), and the lowest AMP concentration that had no bacterial growth was recorded as the MIC after 48 hours. Each bacterium was trialled in duplicate.", "remark": "listed apart in the source"}, "[11]": {"system": "Vibrio harveyi (ATCC 35084)", "details": "ATCC 35084, 48 h", "protocol": "as §1, §2, §4", "remark": "listed apart in the source"}, "[12]": {"system": "Vibrio alginolyticus", "details": "48 h", "protocol": "as §1, §2, §4", "remark": "listed apart in the source"}, "[13]": {"system": "Vibrio scophthalmi", "details": "48 h", "protocol": "as §1, §2, §4", "remark": "listed apart in the source"}, "[14]": {"system": "Vibrio rotiferianus", "details": "48 h", "protocol": "as §1, §2, §4", "remark": "listed apart in the source"}, "[15]": {"system": "Escherichia coli (ATCC 25922)", "details": "ATCC 25922, 48 h", "protocol": "as §1, §2, §4", "remark": "listed apart in the source"}, "[16]": {"system": "Shewanella sp.", "details": "48 h", "protocol": "as §1, §2, §4", "remark": "listed apart in the source"}},
  "note": "No end group written: not given here.",
  "data": [
    {"substance": "KRWWKWWRR-NH2 [HHC36]", "values": [
      {"measurement": "MIC V. harveyi, salinity 0‰", "setting": "[1]", "value": 32.5, "unit": "µg/mL"},
      {"measurement": "MIC V. harveyi, salinity 25‰", "setting": "[1]", "value": "> 65", "unit": "µg/mL"},
      {"measurement": "MIC V. harveyi ATCC 35084, salinity 0‰", "setting": "[2]", "value": 32.5, "unit": "µg/mL"},
      {"measurement": "MIC V. harveyi ATCC 35084, salinity 25‰", "setting": "[2]", "value": "> 65", "unit": "µg/mL"},
      {"measurement": "MIC V. alginolyticus, salinity 0‰", "setting": "[3]", "value": "> 65", "unit": "µg/mL"},
      {"measurement": "MIC V. alginolyticus, salinity 25‰", "setting": "[3]", "value": "> 65", "unit": "µg/mL"},
      {"measurement": "MIC T. discolor, salinity 25‰", "setting": "[4]", "value": "> 65", "unit": "µg/mL"},
      {"measurement": "MIC V. scophthalmi, salinity 0‰", "setting": "[5]", "value": 2.03, "unit": "µg/mL"},
      {"measurement": "MIC V. scophthalmi, salinity 25‰", "setting": "[5]", "value": "> 65", "unit": "µg/mL"},
      {"measurement": "MIC V. rotiferianus, salinity 0‰", "setting": "[6]", "value": "> 65", "unit": "µg/mL"},
      {"measurement": "MIC V. rotiferianus, salinity 25‰", "setting": "[6]", "value": "> 65", "unit": "µg/mL"},
      {"measurement": "MIC E. coli ATCC 25922, salinity 0‰", "setting": "[7]", "value": 2.03, "unit": "µg/mL"},
      {"measurement": "MIC E. coli ATCC 25922, salinity 25‰", "setting": "[7]", "value": "> 65", "unit": "µg/mL"},
      {"measurement": "MIC Shewanella sp., salinity 25‰", "setting": "[8]", "value": "> 65", "unit": "µg/mL"},
      {"measurement": "MIC Pseudoalteromonas sp., salinity 25‰", "setting": "[9]", "value": "> 65", "unit": "µg/mL"}
    ]},
    {"substance": "RRQWRGWVRIWL-NH2 [Peptide 3005]", "values": [
      {"measurement": "MIC V. harveyi, Acetic", "setting": "[10]", "value": 4.06, "unit": "µg/mL"},
      {"measurement": "MIC V. harveyi, No acetic", "setting": "[10]", "value": 1.02, "unit": "µg/mL"},
      {"measurement": "MIC V. harveyi ATCC 35084, Acetic", "setting": "[11]", "value": 16.25, "unit": "µg/mL"},
      {"measurement": "MIC V. harveyi ATCC 35084, No acetic", "setting": "[11]", "value": 16.25, "unit": "µg/mL"},
      {"measurement": "MIC V. alginolyticus, Acetic", "setting": "[12]", "value": 4.06, "unit": "µg/mL"},
      {"measurement": "MIC V. alginolyticus, No acetic", "setting": "[12]", "value": 16.25, "unit": "µg/mL"},
      {"measurement": "MIC V. scophthalmi, Acetic", "setting": "[13]", "value": 1.02, "unit": "µg/mL"},
      {"measurement": "MIC V. scophthalmi, No acetic", "setting": "[13]", "value": 0.25, "unit": "µg/mL"},
      {"measurement": "MIC V. rotiferianus, Acetic", "setting": "[14]", "value": 4.06, "unit": "µg/mL"},
      {"measurement": "MIC V. rotiferianus, No acetic", "setting": "[14]", "value": 1.02, "unit": "µg/mL"},
      {"measurement": "MIC E. coli ATCC 25922, Acetic", "setting": "[15]", "value": "> 65", "unit": "µg/mL"},
      {"measurement": "MIC E. coli ATCC 25922, No acetic", "setting": "[15]", "value": "> 65", "unit": "µg/mL"},
      {"measurement": "MIC Shewanella sp., Acetic", "setting": "[16]", "value": 4.06, "unit": "µg/mL"},
      {"measurement": "MIC Shewanella sp., No acetic", "setting": "[16]", "value": 8.13, "unit": "µg/mL"},
      {"measurement": "MIC V. harveyi, salinity 0‰", "setting": "[1]", "value": 4.06, "unit": "µg/mL"},
      {"measurement": "MIC V. harveyi, salinity 25‰", "setting": "[1]", "value": "> 65", "unit": "µg/mL"},
      {"measurement": "MIC V. harveyi ATCC 35084, salinity 0‰", "setting": "[2]", "value": 4.06, "unit": "µg/mL"},
      {"measurement": "MIC V. harveyi ATCC 35084, salinity 25‰", "setting": "[2]", "value": "> 65", "unit": "µg/mL"},
      {"measurement": "MIC V. alginolyticus, salinity 0‰", "setting": "[3]", "value": 2.03, "unit": "µg/mL"},
      {"measurement": "MIC V. alginolyticus, salinity 25‰", "setting": "[3]", "value": "> 65", "unit": "µg/mL"},
      {"measurement": "MIC T. discolor, salinity 25‰", "setting": "[4]", "value": "> 65", "unit": "µg/mL"},
      {"measurement": "MIC V. scophthalmi, salinity 0‰", "setting": "[5]", "value": 0.13, "unit": "µg/mL"},
      {"measurement": "MIC V. scophthalmi, salinity 25‰", "setting": "[5]", "value": 65, "unit": "µg/mL"},
      {"measurement": "MIC V. rotiferianus, salinity 0‰", "setting": "[6]", "value": 1.02, "unit": "µg/mL"},
      {"measurement": "MIC V. rotiferianus, salinity 25‰", "setting": "[6]", "value": "> 65", "unit": "µg/mL"},
      {"measurement": "MIC E. coli ATCC 25922, salinity 0‰", "setting": "[7]", "value": 4.06, "unit": "µg/mL"},
      {"measurement": "MIC E. coli ATCC 25922, salinity 25‰", "setting": "[7]", "value": "> 65", "unit": "µg/mL"},
      {"measurement": "MIC Shewanella sp., salinity 0‰", "setting": "[8]", "value": 8.13, "unit": "µg/mL"},
      {"measurement": "MIC Shewanella sp., salinity 25‰", "setting": "[8]", "value": 65, "unit": "µg/mL"},
      {"measurement": "MIC Pseudoalteromonas sp., salinity 25‰", "setting": "[9]", "value": "> 65", "unit": "µg/mL"}
    ]}
  ]
}
